This test relates to Plasmodium berghei. The test is described as follows: Luciferase/luciferin-expressing antifolate-resistant parasites were used to infect a culture of HepG2 cells that were pre-incubated with compounds. Infected hepatocytes emit light due to the luciferase reaction. Assay results are presented as the percent inhibition of light emission compared to control. […]. It is filed as functional. The following applies: sporozoite; for IC90: read-out: LUCIFERASE INFECTION ASSAY - IC90.

[1] abbreviates: read-out: LUCIFERASE INFECTION ASSAY - IC50.

pIC50: −log10 of the molar value. Some results are limits rather than exact numbers.

Take `COc1c(Br)cc([N+](=O)[O-])c(OC)c1C(=O)NC(=O)Nc1cc(C(F)(F)F)cc(C(F)(F)F)c1`: the IC90 was 5.15 µM. Also, the pIC50 (HEPG2TOX_HILL_SLOPE 8.68, HEPG2TOX_R_SQUARED 0.501, PBLUC_HILL_SLOPE 19.7, PBLUC_R_SQUARED 0.399, read-out: LUCIFERASE INFECTION ASSAY - IC50) is 5.34.

`COc1ccc(C)cc1N1CC(C(=O)Nc2nc3ccccc3[nH]2)CC1=O` (stereo unspecified): the IC90 amounted to 4.27 µM. Where the note is “HEPG2TOX_HILL_SLOPE 2.88, HEPG2TOX_R_SQUARED 0.929, PBLUC_HILL_SLOPE 3.77, PBLUC_R_SQUARED 0.362, read-out: LUCIFERASE INFECTION ASSAY - IC50”, the pIC50 is 5.62.

`CCCOc1ccc2ccccc2c1CN(C)c1cncc(-n2cccn2)n1`: the 90% effect concentration (IC90) was more than 10 µM. In addition, the pIC50 under setting [1] was less than 5.00.

Take `CC1(c2ccc3ccccc3c2)NC(=O)N(CC(=O)NC(CN2CCOCC2)c2ccccc2)C1=O` (stereo unspecified): the IC90 was more than 10 µM. The pIC50 under setting [1] is less than 5.00.

In the case of `CCN(c1ccccc1)S(=O)(=O)c1ccc(Cl)c(NC(=O)Nc2ccc(Cl)cc2C#N)c1`, the IC90 turned out to be 7.06 µM. Also, where the note is “PBLUC_HILL_SLOPE 5.41, PBLUC_R_SQUARED 0.801, read-out: LUCIFERASE INFECTION ASSAY - IC50”, the pIC50 was 5.33.

With `O=C(c1cnc(Nc2cccc(Oc3ccccc3)c2)[nH]1)c1ccccc1F`, the IC90 came out at 3.36 µM. Besides, where the note is “HEPG2TOX_HILL_SLOPE 2.89, HEPG2TOX_R_SQUARED 0.712, PBLUC_HILL_SLOPE 12, PBLUC_R_SQUARED 0.715, read-out: LUCIFERASE INFECTION ASSAY - IC50”, the pIC50 was 5.55.

As to `CNc1snc(C)c1C(=O)Nc1ccc2oc(C(C)C)nc2c1`, the IC90 came out at 3.56 µM. For the same molecule, for the setting “PBLUC_HILL_SLOPE 15, PBLUC_R_SQUARED 0.678, read-out: LUCIFERASE INFECTION ASSAY - IC50”, the pIC50 is 5.51.

Consider `O=c1cc(C(F)(F)F)[nH]c2cc(C(F)(F)F)ccc12`, for which the IC90 stood at 4.25 µM. Besides, the pIC50 (PBLUC_HILL_SLOPE 15.4, PBLUC_R_SQUARED 0.673, read-out: LUCIFERASE INFECTION ASSAY - IC50) was 5.43.

Regarding `CCC(C)NC(=O)c1c(NC(=O)c2cc(F)c(F)cc2F)nc2ccc(C)cn12` (stereo unspecified), the IC90 was determined as 1.1 µM. For the same molecule, under setting [1], the pIC50 is 6.04.

`CC1(C)CCc2cc(/C=N/NC(=O)c3ccc(Cl)cc3)ccc2O1`: the IC90 was more than 9.63 µM. Further, the pIC50 (FFLUC_HILL_SLOPE 0.306, FFLUC_R_SQUARED 0.456, PBLUC_HILL_SLOPE 2.8, PBLUC_R_SQUARED 0.043, read-out: LUCIFERASE INFECTION ASSAY - IC50) is 5.17.

Consider `O=C(NNC(=O)c1csnn1)c1ccc(Cl)cc1`, for which the IC90 is 0.897 µM. Further, the pIC50 (PBLUC_HILL_SLOPE 1.87, PBLUC_R_SQUARED 0.856, read-out: LUCIFERASE INFECTION ASSAY - IC50) is 6.56.

As for `CN(C)CCNC(=O)c1ccc(-c2cn3c(-c4cccc(OC(F)(F)F)c4)cnc3cn2)cc1`, the IC90 was more than 7.03 µM. Also, under “PBLUC_HILL_SLOPE 3.61, PBLUC_R_SQUARED 0.27, read-out: LUCIFERASE INFECTION ASSAY - IC50”, the pIC50 was 5.23.

As to `CCOC(=O)c1cnc(SC(C)C(=O)Nc2nc(-c3ccccc3)cs2)nc1N` (stereo unspecified), the IC90 was more than 10 µM. Further, the pIC50 (HEPG2TOX_HILL_SLOPE 0.514, HEPG2TOX_R_SQUARED 0.73, PBLUC_HILL_SLOPE 0.707, PBLUC_R_SQUARED 0.324, read-out: LUCIFERASE INFECTION ASSAY - IC50) is 5.35.

In the case of `Cc1cc(C(C)(C)C)cc(C)c1CCNC(=O)c1ccc[n+]([O-])c1`, the IC90 was more than 10 µM. The pIC50 under setting [1] is less than 5.00.

On to `CN1/C(=C\C(=O)CSc2nc(N)c3ccsc3n2)C(C)(C)c2ccccc21`, for which the IC90 is more than 10 µM. Besides, the pIC50 (PBLUC_HILL_SLOPE 1.96, PBLUC_R_SQUARED 0.352, read-out: LUCIFERASE INFECTION ASSAY - IC50) was 5.08.

As to `CCOC(=O)CCc1c(C)[nH]n(-c2nc3ccccc3[nH]2)c1=O`, the IC90 stood at 3.53 µM. Also, the negative-log IC50 (pIC50) (HEPG2TOX_HILL_SLOPE 1.88, HEPG2TOX_R_SQUARED 0.728, PBLUC_HILL_SLOPE 14.3, PBLUC_R_SQUARED 0.719, read-out: LUCIFERASE INFECTION ASSAY - IC50) was 5.52.

With `CCCCN(C)CC(O)Cn1c2ccc(Cl)cc2c2cc(Cl)ccc21` (stereo unspecified), the IC90 turned out to be 6.48 µM. For the same molecule, the pIC50 (HEPG2TOX_HILL_SLOPE 6.86, HEPG2TOX_R_SQUARED 0.608, PBLUC_HILL_SLOPE 4.67, PBLUC_R_SQUARED 0.619, read-out: LUCIFERASE INFECTION ASSAY - IC50) is 5.39.

With `CC(C)(C)c1ccc(-c2nc(-c3ccc(C(F)(F)F)cc3)cs2)cc1`, the IC90 was more than 9.13 µM. In addition, the pIC50 (FFLUC_HILL_SLOPE 12.9, FFLUC_R_SQUARED 0.362, PBLUC_HILL_SLOPE 0.825, PBLUC_R_SQUARED 0.291, read-out: LUCIFERASE INFECTION ASSAY - IC50) is 5.49.

Regarding `CC(C)N(C(=O)CN1CCN(c2ccccc2Cl)CC1)c1ccc(Nc2ccccc2)cc1`, the IC90 is more than 10 µM. Under setting [1], the pIC50 was 5.32.

On to `COc1ccc(/C=C/C#N)c(Cl)c1OC`, for which the IC90 is more than 14.8 µM. Under “HEPG2TOX_HILL_SLOPE 1.17, HEPG2TOX_R_SQUARED 0.985, PBLUC_HILL_SLOPE 2.95, PBLUC_R_SQUARED 0.12, read-out: LUCIFERASE INFECTION ASSAY - IC50”, the pIC50 is 4.95.

For the molecule `Fc1cccc(-c2cn3c(-c4ccc5ncccc5c4)cnc3cn2)c1`, the IC90 is 0.986 µM. In addition, the pIC50 (HEPG2TOX_HILL_SLOPE 1.51, HEPG2TOX_R_SQUARED 0.947, PBLUC_HILL_SLOPE 2.49, PBLUC_R_SQUARED 0.764, read-out: LUCIFERASE INFECTION ASSAY - IC50) is 6.39.

Consider `Cn1nc(-c2ccc(S(=O)(=O)NCc3cccnc3)s2)cc1C(F)(F)F`, for which the IC90 is more than 8.2 µM. Also, the pIC50 under setting [1] was less than 5.09.

Turning to `CCCN(CC(=O)Nc1cc(Cl)ccc1Cl)CC(=O)Nc1sccc1C(N)=O`, the IC90 is more than 10 µM. In addition, the pIC50 under setting [1] was less than 5.00.

Consider `O=C(Nc1ccc(OC(F)F)c(Cc2ccccc2)c1)c1ccc(-n2ccnc2)nc1`, for which the IC90 was more than 10 µM. Also, under “PBLUC_HILL_SLOPE 6.37, PBLUC_R_SQUARED 0.721, read-out: LUCIFERASE INFECTION ASSAY - IC50”, the pIC50 is 5.05.

In the case of `CCn1nnnc1Sc1ncnc2scc(-c3ccc(C)cc3)c12`, the IC90 is more than 10 µM. Moreover, the pIC50 under setting [1] is less than 5.00.

`CCOC(=O)c1ccccc1NC(=O)C1CCN(c2ncnc3sc(C)c(C)c23)CC1`: the IC90 is more than 10 µM. Moreover, the pIC50 (PBLUC_HILL_SLOPE 0.744, PBLUC_R_SQUARED 0.552, read-out: LUCIFERASE INFECTION ASSAY - IC50) was 5.24.

In the case of `Cc1ccc(C(C)C)c(OCc2ccc(-c3nnco3)cc2)c1`, the IC90 is more than 10 µM. The pIC50 under setting [1] is less than 5.00.

For `CC(C)CN1C(=O)N(CCCc2cccnc2)C(=O)C12CCN(C(C)CCc1ccccc1)CC2` (stereo unspecified), the IC90 was more than 6.92 µM. The pIC50 (PBLUC_HILL_SLOPE 2.19, PBLUC_R_SQUARED 0.623, read-out: LUCIFERASE INFECTION ASSAY - IC50) is 5.44.

On to `COc1ccc(/C=C/c2nc3cc(-c4nc5ccccc5[nH]4)ccc3s2)cc1`, for which the IC90 was 4.48 µM. In addition, under setting [1], the pIC50 is 5.74.

Regarding `Cc1ccc(-c2nonc2NC(=O)c2sc3ccccc3c2Cl)cc1`, the IC90 was 6.55 µM. Further, the pIC50 (HEPG2TOX_HILL_SLOPE 10.3, HEPG2TOX_R_SQUARED 0.121, PBLUC_HILL_SLOPE 5.87, PBLUC_R_SQUARED 0.389, read-out: LUCIFERASE INFECTION ASSAY - IC50) was 5.35.

As to `Cc1ccc(-c2nn(CN(C)CC(=O)NC(C)C)c(=S)n2C)cc1`, the IC90 was more than 10 µM. Moreover, the pIC50 under setting [1] is less than 5.00.

With `Cc1ccc(-n2c(Sc3ccc4nnnn4n3)nc3sc4c(c3c2=O)CCC(C)C4)cc1C` (stereo unspecified), the IC90 was more than 10 µM. Also, the pIC50 (FFLUC_HILL_SLOPE 3.23, FFLUC_R_SQUARED 0.696, PBLUC_HILL_SLOPE 2.23, PBLUC_R_SQUARED 0.861, read-out: LUCIFERASE INFECTION ASSAY - IC50) is 5.38.

For the molecule `Fc1cccc(-c2nc3ccnc(NCc4ccccc4)c3[nH]2)c1`, the IC90 turned out to be 4.56 µM. Moreover, the pIC50 (HEPG2TOX_HILL_SLOPE 6.86, HEPG2TOX_R_SQUARED 0.629, PBLUC_HILL_SLOPE 1.32, PBLUC_R_SQUARED 0.696, read-out: LUCIFERASE INFECTION ASSAY - IC50) is 6.06.

Consider `Cn1c(=O)n(C2CCCCC2)c(=O)c2ccccc21`, for which the IC90 was more than 12.8 µM. Under setting [1], the pIC50 was less than 4.89.

Consider `COc1cc(-c2cccc(Nc3cccc(OC(F)(F)C(F)F)c3)n2)cc(OC)c1OC`, for which the IC90 was more than 7.29 µM. Further, the pIC50 under setting [1] is less than 5.14.

`O=C(NCc1ccc(-c2nc3ccccc3s2)cc1)c1ccco1`: the IC90 is 3.45 µM. For the same molecule, under setting [1], the pIC50 is 5.55.

As for `CC(C)c1cccc(-c2nc3ccnc(NCc4ccc(N(C)C)cc4)c3[nH]2)c1`, the IC90 is more than 10 µM. For the same molecule, for the setting “HEPG2TOX_HILL_SLOPE 6.72, HEPG2TOX_R_SQUARED 0.795, PBLUC_HILL_SLOPE 11.9, PBLUC_R_SQUARED 0.428, read-out: LUCIFERASE INFECTION ASSAY - IC50”, the pIC50 was 5.06.

On to `Nc1nn(C(=O)c2csc3ccccc23)c2ccccc12`, for which the IC90 is more than 10 µM. The pIC50 (FFLUC_HILL_SLOPE 1.19, FFLUC_R_SQUARED 0.595, HEPG2TOX_HILL_SLOPE 0.0302, HEPG2TOX_R_SQUARED 0.0617, PBLUC_HILL_SLOPE 0.566, PBLUC_R_SQUARED 0.73, read-out: LUCIFERASE INFECTION ASSAY - IC50) is 6.44.

The record behind these values is ChEMBL document CHEMBL4483862, “Open-source discovery of chemical leads for next-generation chemoprotective antimalarials” (2018).
